Literature values as cited in US20250067661A1, “SYSTEM FOR BODY FLUID ISOMER ANALYSIS” (KONINKLIJKE PHILIPS N.V., priority 2021, published 2025).

Conditions: intravenous solution containing a racemic mixture

Row | Structure (SMILES) | maximum increase in plasma concentration
1 | C[C@H](O)C(=O)O [L-lactate] | ≤ 2 fold
2 | C[C@@H](O)C(=O)O [D-lactate] | ≤ 13 fold
